In the oligonucleotide strings, read from the 5' end, every base follows the letter of its sugar. An asterisk marks phosphorothioate; unmarked linkages are phosphodiester. Other units and linkages are bracketed, terminal groups are in braces. A string of capitals states the bases alone. e = 2'-O-(2-methoxyethyl) (MOE); [5mC] = 5-methylcytosine; d = 2'-deoxy (DNA); r = 2'-OH (RNA)
Key:
Assay type in all cases: cell-based
[1] = test system: human apolipoprotein B mRNA; test: Inhibition of apolipoprotein B mRNA by dsRNAs in HepG2 cells; settings: 150 nM with 3.75 μg/mL LIPOFECTIN
Description: In accordance with the present invention, a series of nucleic acid duplexes comprising the antisense compounds of the present invention and their complements were designed to target apolipoprotein B and are shown in Table 42. All compounds in Table 42 are oligoribonucleotides 20 nucleotides in length with phosphodiester internucleoside linkages (backbones) throughout the compound. The compounds were prepared with blunt ends. […] These sequences are shown to contain uracil (U) but one of skill in the art will appreciate that uracil (U) is generally replaced by thymine (T) in DNA sequences. “Targer site” indicates the first (5′-most) nucleotide number on the particular target sequence to which the compound binds. A subset of the compounds in Table 42 are the RNA equivalents of DNA antisense oligonucleotides described herein, and, where applicable, this is noted by the ISIS # of the DNA oligonucleotide in the column “RNA equivalent of ISIS #”.
The dsRNA compounds in Table 42 were tested for their effects on human apolipoprotein mRNA in HepG2 cells. HepG2 cells were treated with 100 nM of dsRNA compounds mixed with 5 μg/mL LIPOFECTIN (Invitrogen Corporation, Carlsbad, Calif.) for a period of 16 hours. In the same experiment, HepG2 cells were also treated with 150 nM of subset of the antisense oligonucleotides described herein mixed with 3.75 μg/mL LIPOFECTIN; these compounds are listed in Table 43. Control oligonucleotides included ISIS 18078 ([…], SEQ ID NO: 888). ISIS 18078 is a chimeric oligonucleotide (“gapmer”) 20 nucleotides in length, composed of a central “gap” region consisting of 9 2′-deoxynucleotides, which is flanked on the 5′ and 3′ ends by a five-nucleotide “wing” and a six-nucleotide “wing”, respectively. The wings are composed of 2′-methoxyethyl (2′-MOE)nucleotides. The internucleoside (backbone) linkages are phosphorothioate (P═S) throughout the oligonucleotide. All cytidines are 5-methylcytidines. The duplex of ISIS 263188 ([…], SEQ ID NO: 889) and its complement was also used as a control. ISIS 263188 is an oligoribonucleotide 21 nucleotides in length with the 2 nucleotides on the 3′ end being oligodeoxyribonucleotides (TT) and with phosphodiester internucleoside linkages (backbones) throughout the compound.
Cells were treated for 4 hours, after which human apolipoprotein B mRNA expression was measured as described by examples herein. Results were normalized to untreated control cells, which were not treated with LIPOFECTIN or oligonucleotide.

[2] = test system: human apolipoprotein B mRNA; test: Inhibition of human apolipoprotein B mRNA levels in HepG2 cells, quantitative real-time PCR; settings: for % INHIB (inhibition of human apolipoprotein B mRNA levels): HepG2 cells treated with 150 nM of compound, averages from two experiments, quantitative real-time PCR
In short: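 HepG2 cells at 80% confluency were transfected with antisense oligonucleotide using 3.75 μg/mL Lipofectin in Opti-MEM for 4-7 h and harvested 16-24 h after treatment. Apolipoprotein B mRNA was measured by real-time RT-PCR and normalized to GAPDH or RiboGreen total RNA. Percent inhibition came from untreated-control standard curves.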

[3] = test system: human apolipoprotein B mRNA; test: Apolipoprotein B mRNA in primary human hepatocytes, real-time PCR
Description: In accordance with the present invention, antisense oligonucleotides targeted to human apolipoprotein B were tested in dose response studies in primary human hepatocytes. Pre-plated primary human hepatocytes were purchased from Invitro Technologies (Baltimore, Md.). Cells were cultured in high-glucose DMEM (Invitrogen Corporation, Carlsbad, Calif.) supplemented with 10% fetal bovine serum (Invitrogen Corporation, Carlsbad, Calif.), 100 units/mL and 100 μg/mL streptomycin (Invitrogen Corporation, Carlsbad, Calif.).
Human primary hepatocytes were treated with ISIS 301012 (SEQ ID NO: 247) at 10, 50, 150 or 300 nM. Untreated cells and cells treated with the scrambled control oligonucleotide ISIS 113529 ([…], SEQ ID NO: 859) served as two groups of control cells. ISIS 113529 is a chimeric oligonucleotide (“gapmer”) 20 nucleotides in length, composed of a central “gap” region consisting of ten 2′-deoxynucleotides, which is flanked on both sides (5′ and 3′ directions) by five-nucleotide “wings”. The wings are composed of 2′-methoxyethyl (2′-MOE)nucleotides. The internucleoside (backbone) linkages are phosphorothioate (P═S) throughout the oligonucleotide. All cytidines are 5-methylcytidines.
(§1) Oligonucleotides were introduced into cells through LIPOFECTIN-mediated transfection as described by other examples herein. Cells were harvested both 24 and 48 hours after treatment with oligonucleotide, and both RNA and protein were isolated. Additionally, the culture media from treated cells was collected for ELISA analysis of apolipoprotein B protein secretion.
Apolipoprotein B mRNA expression was determined by real-time PCR of RNA samples as described by other examples herein. Each result represents 6 experiments.
(§2) An additional experiment was performed to test the effects of ISIS 271009 (SEQ ID NO: 319), ISIS 281625 (SEQ ID NO: 224) and ISIS 301027 (SEQ ID NO: 262) on human apolipoprotein B mRNA in human primary hepatocytes. Cells were cultured as described herein and treated with 5, 10, 50 or 150 nM of ISIS 271009, ISIS 281625 or ISIS 301027 for a period of 24 hours. The control oligonucleotides ISIS 13650 (SEQ ID NO: 806) and ISIS 113529 (SEQ ID NO: 859) were used at 50 or 150 nM. Human apolipoprotein B mRNA expression was evaluated by real-time PCR as described by other examples herein. Apolipoprotein B protein secreted into the cultured cell media was measured in the samples treated with 50 and 150 nM of oligonucleotide, using a target protein specific ELISA kit (ALerCHEK Inc., Portland, Me.).

apolipoprotein B protein = test: Apolipoprotein B protein secreted from primary human hepatocytes, ELISA; settings: for % Inhibition of apolipoprotein B protein secretion: 24 hours
Description: as §1
Apolipoprotein secreted from into the cultured cell media was measured in the samples treated with 50 and 150 nM of oligonucleotide, using a target protein specific ELISA kit (ALerCHEK Inc., Portland, Me.). Each result represents 3 experiments.
as §2

[4] = test system: human apolipoprotein(a) mRNA; test: Apolipoprotein(a) mRNA expression in primary human hepatocytes, real-time PCR; settings: human primary hepatocytes; 5, 10, 50 or 150 nM, 24 hours
Description: Primary human hepatocytes (InVitro Technologies, Baltimore, Md.), cultured and transfected as described herein, were treated with 5, 10, 50 or 150 nM of ISIS 271009 (SEQ ID NO: 319), 281625 (SEQ ID NO: 224), 301012 (SEQ ID NO: 247) or 301027 (SEQ ID NO: 262). Cells were also treated with 50 or 150 nM of the control oligonucleotides ISIS 113529 (SEQ ID NO: 859) or ISIS 13650 (SEQ ID NO: 806). Untreated cells served as a control. Following 24 hours of oligonucleotide treatment, apolipoprotein(a) mRNA expression was measured by quantitative real-time PCR as described in other examples herein.
Probes and primers to human apolipoprotein(a) were designed to hybridize to a human apolipoprotein(a) sequence, using published sequence information (GenBank accession number NM_005577.1, incorporated herein as SEQ ID NO: 860). For human apolipoprotein(a) the PCR primers were: […]
forward primer: […] (SEQ ID NO: 861)
reverse primer: TGCGTCTGAGCATTGCGT (SEQ ID NO: 862) and the PCR probe was: FAM-[…]-TAMRA (SEQ ID NO: 863) where FAM is the fluorescent dye and TAMRA is the quencher dye.
Data are the average of three experiments and are expressed as percent inhibition relative to untreated controls.

[5] = test system: Cynomolgous monkey apolipoprotein B mRNA; test: Apolipoprotein B mRNA in primary Cynomolgous monkey hepatocytes, real-time PCR; settings: Cynomolgous monkey primary hepatocytes; 10, 50 and 150 nM, 24 hours
Description: Antisense inhibition by ISIS 301012 was compared to that of ISIS 326358, which is a perfect match to the Cynomolgous monkey apolipoprotein B sequence to which ISIS 301012 hybridizes. The compounds were analyzed for their effect on Cynomolgous monkey apolipoprotein B mRNA levels in primary Cynomolgous monkey hepatocytes purchased from In Vitro Technologies ([…].). Pre-plated primary Cynonomolgous monkey hepatocytes were purchased from InVitro Technologies (Baltimore, Md.). Cells were cultured in high-glucose DMEM (Invitrogen Corporation, Carlsbad, Calif.) supplemented with 10% fetal bovine serum (Invitrogen Corporation, Carlsbad, Calif.), 100 units/mL and 100 μg/mL streptomycin (Invitrogen Corporation, Carlsbad, Calif.).
Primary Cynomolgous monkey hepatocytes were treated with 10, 50, 150 or 300 nM of antisense oligonucleotides for 48 hours. ISIS 113529 (SEQ ID NO: 859) was used as a control oligonucleotide. Untreated cells also served as a control. Cynomolgous monkey apolipoprotein B mRNA levels were quantitated by real-time PCR using the human apolipoprotein B and GAPDH primers and probes described by other examples herein. The results, shown in Table 44, are the average of 6 experiments and are expressed as percent inhibition of apolipoprotein B mRNA normalized to untreated control cells.
In a further embodiment of the invention, antisense inhibition by ISIS 281625 was compared to that by ISIS 315089, which is a perfect match to the Cynomolgous monkey apolipoprotein B sequence to which ISIS 281625 hybridizes. Primary Cynomolgous monkey hepatocytes, cultured as described herein, were treated with 10, 50, 150 or 300 nM of ISIS 315089 or ISIS 281625 for 24 hours. Cells were treated with the control oligonucleotide ISIS 13650 (SEQ ID NO: 806) at 150 and 300 nM or ISIS 113529 (SEQ ID NO: 859) at 300 nM. Untreated cells also served as a control. Cynomolgous monkey apolipoprotein B mRNA levels in primary Cynomolgous monkey hepatocytes was quantitated using real-time PCR with human primers and probe as described by other examples herein. The results, shown in Table 46, are the average of 3 experiments and are expressed as percent inhibition of apolipoprotein B mRNA normalized to untreated control cells.
ISIS 271009 (SEQ ID NO: 319) and ISIS 301027 (SEQ ID NO: 262) were also tested for their effects on apolipoprotein B mRNA and protein expression in Cynomolgous primary hepatoctyes. Cells, cultured as described herein, were treated with 10, 50 and 150 nM of ISIS 271009 or ISIS 301027 for 24 hours. Cells were treated with the control oligonucleotide ISIS 113529 (SEQ ID NO: 859) at 150 nM. Untreated cells also served as a control. Cynomolgous monkey apolipoprotein B mRNA levels in primary Cynomolgous monkey hepatocytes was quantitated using real-time PCR with human primers and probe as described by other examples herein. The results, shown in Table 48, are the average of 2 experiments and are expressed as percent inhibition of apolipoprotein B mRNA normalized to untreated control cells.

Substance | % Inhibition of apolipoprotein B mRNA [1] [%] | % Inhibition of apolipoprotein B mRNA expression ([3]; 50 nM, 24 hours (Table 37)) [%] | % Inhibition of apolipoprotein B mRNA expression ([3]; 150 nM, 24 hours (Table 37)) [%] | % Inhibition of apolipoprotein B protein secretion (apolipoprotein B protein; 150 nM, "+" = increased) | further results
18078 (antisense eG*eT*eG*e[5mC]*eG*d[5mC]*dG*d[5mC]*dG*dA*dG*d[5mC]*d[5mC]*d[5mC]*eG*eA*eA*eA*eT*e[5mC]) [compound 18078] | 13 | – | – | – | –
263188 (rCrUrUrCrUrGrGrCrArUrCrCrGrGrUrUrUrArGdTdT; siRNA) [compound 263188] | 26 | – | – | – | –
301014 (e[5mC]*eA*eG*e[5mC]*e[5mC]*d[5mC]*d[5mC]*dG*d[5mC]*dA*dG*dG*dT*d[5mC]*d[5mC]*e[5mC]*eG*eG*eT*eG; antisense) [compound 301014] | 88 | – | – | – | % INHIB (inhibition of human apolipoprotein B mRNA levels) [2]: 88%; % inhibition 37 nM ([2]; Table 19 dose response, HepG2 cells, 37 nM, normalized to untreated control): 75%; % inhibition 75 nM ([2]; Table 19 dose response, HepG2 cells, 75 nM, normalized to untreated control): 90%; % inhibition 150 nM ([2]; Table 19 dose response, HepG2 cells, 150 nM, normalized to untreated control): 96%; % inhibition 300 nM ([2]; Table 19 dose response, HepG2 cells, 300 nM, normalized to untreated control): 98%
301021 (eG*eG*eT*e[5mC]*e[5mC]*dA*dT*d[5mC]*dG*d[5mC]*d[5mC]*dA*dG*d[5mC]*dT*eG*e[5mC]*eG*eG*eT; antisense) [compound 301021] | 67 | – | – | – | % INHIB (inhibition of human apolipoprotein B mRNA levels) [2]: 89%
CTCTTACTGTGCTGTGGACA (antisense e[5mC]*eT*e[5mC]*eT*eT*dA*d[5mC]*dT*dG*dT*dG*d[5mC]*dT*dG*dT*eG*eG*eA*e[5mC]*eA) [ISIS 113529, reference compound] | – | 0 | 14 | +1% | –
GCCTCAGTCTGCTTCGCGCC (2'-MOE gapmer, further chemistry not given here) [ISIS 271009] | – | 52 | 81 | 32% | % Inhibition of apolipoprotein B mRNA expression ([3]; 5 nM, 24 hours, "+" = expression increased): +4%; % Inhibition of apolipoprotein B mRNA expression ([3]; 10 nM, 24 hours (Table 37)): 5%; apolipoprotein B mRNA expression ([3]; 5, 10, 50 or 150 nM, 24 hours): inhibit apolipoprotein B mRNA expression in a dose-dependent manner; % Inhibition of apolipoprotein B protein secretion (apolipoprotein B protein; 50 nM): 17%; secretion of apolipoprotein B protein from cells (ELISA) (apolipoprotein B protein; 50 and 150 nM): inhibit the secretion of apolipoprotein B protein from cells in a dose-dependent manner; expression of apolipoprotein(a) mRNA [4]: inhibited apolipoprotein(a) expression at the highest dose; inhibition of apolipoprotein B mRNA expression [5]: in a dose-dependent manner
ISIS 13650: SEQ ID NO: 806, control oligonucleotide (antisense TCCCGCCTGTGACATGCATT; listed as DNA, chemistry not given here) [reference compound] | – | 38 | 26 | +18% | –
